Data from patent US20130316963A1, “INNATE DEFENCE REGULATORY PEPTIDE COMPOSITIONS FOR TREATMENT OF ARTHRITIS” (UNIVERSITY OF MANITOBA, priority 2010, published 2013).

Columns and labels:
Type in all cases: cell-based
JNK = JNK activity assay (immunoprecipitation, c-Jun Ser73 phosphorylation immunoblot) in human FLS cells; conditions: IL-1β 10 ng/ml 15 min; IDR-1002 100 μg/ml 45 min prior to or at time of stimulation; FIG. 8
Experimental: Human FLS cells (5×10^4/ml) were seeded in a total volume of 20 ml per 75 cm^2 tissue culture flask in complete DMEM media containing 10% FBS for each condition. The cells were allowed to adhere overnight. Following day the media was changed to 10 ml complete DMEM containing 1% FBS. The cells were either un-stimulated or treated with IL-1β (10 ng/ml) in the presence or absence of IDR-1002 (100 μg/ml) for 15 min. IL-1β is known to induce JNK activation, and also p38 MAPK activity, after 15 min in FLS cells. Peptide IDR-1002 (100 μg/ml) was added either 45 min prior to, or at the time of stimulation with IL-1β. Total protein concentration was evaluated for each cell lysate employing micro BCA (Thermo Scientific). Kinase activities specific to JNK and to p38-MAPK were monitored employing the JNK activity assay kit and the p38 MAPK assay kit (Abcam Inc., Calif., USA) following the manufacturer's instructions. For JNK, 50 μg of total protein per cell lysate was used for immunoprecipitation employing a JNK-specific antibody. The eluate was treated with c-Jun substrate and ATP mixture. Subsequent phosporylation of c-Jun was evaluated by probing immunoblots with anti-phospho-c-Jun (Ser73) specific antibody. […] Subsequent phosporylation of ATF-2 was evaluated by probing immunoblots with a phospho-ATF-2 (Thr76) specific antibody. […]

human FLS cells [1] = experiment: IL-6 production in human FLS cells stimulated with TGF-β (ELISA); conditions: FIG. 4
Experimental: Tissue culture supernatants were harvested from human FLS cells after stimulation for 24 hr with TGF-β with and without IDR-1002. The supernatants were centrifuged at 1500×g for 7 min to obtain cell-free samples. The samples were aliquoted and stored at −20° C. until further use. Production of IL-6 in the tissue culture supernatants was monitored using Quantikine® human […] ELISA following the manufacturer's instructions. […] FLS cells stimulated with TGF-β produced more than 500 pg/ml of IL-6. […] Results shown are an average of at least three independent biological experiments performed with cells isolated from synovial tissues obtained from independent donors±standard error (*p<0.05, **p<0.01).

human FLS cells [2] = experiment: IL-IRA production in human FLS cells stimulated with IL-1β (ELISA); conditions: 48 hr, FIG. 5
Experimental: Tissue culture supernatants were harvested from human FLS cells after stimulation for 48 hr with IL-1β with and without IDR-1002. The supernatants were centrifuged at 1500×g for 7 min to obtain cell-free samples. The samples were aliquoted and stored at −20° C. until further use. Production of IL-IRA in the tissue culture supernatants was monitored using Quantikine® human […] ELISA following the manufacturer's instructions. […] Results shown are an average of at least three independent biological experiments performed with cells isolated from synovial tissues obtained from independent donors±standard error (*p<0.05, **p<0.01).

[3] = test system: Human macrophage-like THP-1 cells; experiment: TNF-α and IL-1β production in IL-32-stimulated THP-1 cells (ELISA); conditions: 24 hr; for reduction of IL-32-induced TNF-α production: FIG. 7A; for reduction of IL-32-induced IL-1β production: FIG. 7B
Experimental: Human macrophage-like THP-1 cells were stimulated for 24 hr with pro-inflammatory cytokine IL-32 (20 ng/ml) in the presence and absence of IDR-1002 (10 or 20 μM). The tissue culture supernatants were monitored for the production of pro-inflammatory cytokines TNF-α and IL-1β after 24 hr by ELISA as described previously.

VQRWLIVWRIRK (IDR-1002 peptide)
IL-1β-induced JNK activity and phosphorylation of c-Jun (Ser73) (JNK): abrogated | reduction in TGF-β-induced IL-6 production (human FLS cells [1]; TGF-β with IDR-1002, 24 hr): more than 50% | IL-6 production by IDR-1002 alone (human FLS cells [1]; no TGF-β, 24 hr): did not stimulate production of IL-6 | IL-IRA production with IL-1β in the presence of IDR-1002, relative to IL-1β in the presence of IDR-1 (human FLS cells [2]): more than twice as much IL-IRA | IL-IRA production with IL-1β in the presence of IDR-1002, relative to IL-1β alone (human FLS cells [2]; IL-1β alone about 150 pg/ml): more than twice as much IL-IRA | IL-IRA production by IDR-1002 alone (human FLS cells [2]; no IL-1β): did not stimulate production of IL-IRA | reduction of IL-32-induced TNF-α production ([3]; 10 μM IDR-1002, IL-32 20 ng/ml): 40% | reduction of IL-32-induced IL-1β production ([3]; 10 μM IDR-1002, IL-32 20 ng/ml): about 40% | reduction of IL-32-induced TNF-α production ([3]; 20 μM IDR-1002, IL-32 20 ng/ml): about 70% | reduction of IL-32-induced IL-1β production ([3]; 20 μM IDR-1002, IL-32 20 ng/ml): about 65%
